This is an account of results in patent US20120302607A1, “C4-SUBSTITUTED ALPHA-KETO OXAZOLES” (The Scripps Research Institute, priority 2008, published 2012).

Series [1] concerns the target T1, membrane-associated hydrolase (KIAA1363) (UniProt Q8BLF1).
T1 sequence (Q8BLF1 1-408): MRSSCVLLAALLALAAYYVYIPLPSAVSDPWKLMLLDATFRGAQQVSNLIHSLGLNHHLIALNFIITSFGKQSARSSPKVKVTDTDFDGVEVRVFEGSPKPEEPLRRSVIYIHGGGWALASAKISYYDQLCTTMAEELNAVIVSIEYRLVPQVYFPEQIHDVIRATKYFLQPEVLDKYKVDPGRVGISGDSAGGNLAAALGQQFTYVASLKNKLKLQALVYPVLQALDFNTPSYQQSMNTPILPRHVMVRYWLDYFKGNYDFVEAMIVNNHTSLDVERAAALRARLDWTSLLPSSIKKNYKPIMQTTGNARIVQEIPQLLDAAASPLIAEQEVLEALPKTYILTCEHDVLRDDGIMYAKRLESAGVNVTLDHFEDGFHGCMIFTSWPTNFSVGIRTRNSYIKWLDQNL
Kind of series: Proteome-wide serine hydrolase selectivity screening, KIAA1363. Type of series: biochemical. The conditions noted are these: selectivity screening.

Series [2] has as its target T2, triacylglycerol hydrolase (TGH) (UniProt Q8VCT4).
T2 sequence (Q8VCT4 1-565): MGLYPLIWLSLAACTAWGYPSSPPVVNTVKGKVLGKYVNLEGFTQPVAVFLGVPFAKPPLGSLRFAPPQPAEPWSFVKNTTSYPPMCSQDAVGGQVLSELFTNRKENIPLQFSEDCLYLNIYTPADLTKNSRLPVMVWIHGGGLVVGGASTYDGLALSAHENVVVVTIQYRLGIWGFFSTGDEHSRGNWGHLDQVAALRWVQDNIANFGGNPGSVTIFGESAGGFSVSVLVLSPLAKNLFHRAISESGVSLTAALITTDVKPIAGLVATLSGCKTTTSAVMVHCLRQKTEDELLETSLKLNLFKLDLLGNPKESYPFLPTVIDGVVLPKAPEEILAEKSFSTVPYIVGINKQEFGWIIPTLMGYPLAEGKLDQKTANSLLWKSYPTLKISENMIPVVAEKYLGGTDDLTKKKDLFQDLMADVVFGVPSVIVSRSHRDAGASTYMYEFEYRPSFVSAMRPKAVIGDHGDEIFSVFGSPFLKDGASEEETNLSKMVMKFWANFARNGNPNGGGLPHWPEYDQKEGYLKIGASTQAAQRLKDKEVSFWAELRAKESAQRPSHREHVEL
Kind of series: Proteome-wide serine hydrolase selectivity screening, TGH. The conditions noted are these: selectivity screening. Type of series: biochemical, human.

For series [3], the target named is T3, FAAH (UniProt O08914).
T3 sequence (O08914 1-579): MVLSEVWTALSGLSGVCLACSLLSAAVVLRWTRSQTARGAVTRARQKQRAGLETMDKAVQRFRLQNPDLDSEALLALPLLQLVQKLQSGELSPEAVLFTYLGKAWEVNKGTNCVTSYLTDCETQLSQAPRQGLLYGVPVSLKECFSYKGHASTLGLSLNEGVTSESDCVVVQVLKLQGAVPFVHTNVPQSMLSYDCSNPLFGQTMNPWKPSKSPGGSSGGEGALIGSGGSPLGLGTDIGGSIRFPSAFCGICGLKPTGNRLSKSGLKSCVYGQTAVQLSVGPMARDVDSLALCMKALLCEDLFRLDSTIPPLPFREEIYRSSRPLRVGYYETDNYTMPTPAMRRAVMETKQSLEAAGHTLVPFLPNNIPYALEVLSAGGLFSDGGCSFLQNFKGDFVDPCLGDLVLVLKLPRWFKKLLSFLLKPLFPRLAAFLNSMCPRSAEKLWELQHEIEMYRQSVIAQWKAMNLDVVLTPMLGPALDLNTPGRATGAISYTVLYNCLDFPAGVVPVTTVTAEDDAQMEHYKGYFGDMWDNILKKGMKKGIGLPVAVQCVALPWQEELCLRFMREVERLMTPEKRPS
Kind of series: Proteome-wide serine hydrolase selectivity screening, FAAH. Type of series: biochemical, human.

Series [4] deals with T4, truncated rat FAAH (rFAAH) (Rattus norvegicus, UniProt P97612).
T4 construct: The truncated rat FAAH (rFAAH) was expressed in E. coli and purified as described by Patricelli et al; made in house; host or cells: E. coli
T4 sequence (P97612 30-579 limits assumed): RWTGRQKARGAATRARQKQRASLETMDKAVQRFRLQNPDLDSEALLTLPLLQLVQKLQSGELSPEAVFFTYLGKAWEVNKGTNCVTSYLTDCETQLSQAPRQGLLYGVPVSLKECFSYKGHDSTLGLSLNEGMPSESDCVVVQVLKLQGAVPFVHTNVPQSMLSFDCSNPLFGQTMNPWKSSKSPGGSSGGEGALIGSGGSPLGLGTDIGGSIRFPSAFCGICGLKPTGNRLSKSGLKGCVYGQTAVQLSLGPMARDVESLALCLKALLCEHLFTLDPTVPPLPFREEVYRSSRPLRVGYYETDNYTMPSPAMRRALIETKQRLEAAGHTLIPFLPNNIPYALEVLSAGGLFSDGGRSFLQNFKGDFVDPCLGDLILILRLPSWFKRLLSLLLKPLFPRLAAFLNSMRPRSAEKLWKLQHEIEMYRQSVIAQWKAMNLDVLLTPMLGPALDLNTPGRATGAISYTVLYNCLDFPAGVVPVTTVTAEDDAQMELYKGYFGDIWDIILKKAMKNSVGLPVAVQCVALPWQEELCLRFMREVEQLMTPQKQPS
Kind of series: Rat FAAH inhibition enzyme assay (14C-oleamide hydrolysis, Dixon plot). Type of series: biochemical. On the procedure: The purified recombinant rFAAH was used in the inhibition assays unless otherwise indicated.
The ^14C-labeled oleamide (substrate) and oleic acid (product) were extracted with EtOAc and analyzed by TLC. The Ki of the inhibitor was calculated using a Dixon plot (standard deviations are provided in the Supporting Information tables).

A short description of series [5]: % hydration or hemiketal formation by 1H and 13C NMR in solvent. Type of series: physicochemical. The conditions noted are these: for form in protic solution: at C4, not C2, 1H and 13C NMR. The source says: The evaluation of Ki provides information about active site binding. […] More subtly, aldehyde 4g (and trifluoromethyl ketone 4i) was established to exist in protic solution as gem diols (at C4, not C2; ^1H and ^13C NMR, data in Examples below).

Series [6] relates to membrane-associated hydrolase (KIAA1363). Kind of series: Proteome-wide serine hydrolase selectivity screening, KIAA1363. Type of series: biochemical. The conditions noted are these: value in parentheses; FAAH versus KIAA1363.
Series [7] has as its system triacylglycerol hydrolase (TGH). Kind of series: Proteome-wide serine hydrolase selectivity screening, TGH. The conditions noted are these: FAAH versus TGH; for TGH (selectivity): value in parentheses. Type of series: biochemical, human.
Where [8] appears, read: Table 1, purified recombinant rFAAH, pH 9.0, read-out: Rat FAAH inhibition Ki.
Where [9] appears, read: Table 4, value ± error, read-out: Ki, inhibition results with calculated errors.
The mark [10] stands for this setting: CD3OD, at the C4 substituent carbonyl.

As usually defined, the IC50 is the concentration at which inhibition is half-maximal. Read a low IC50 as inhibition by little substance. As a reminder, the Ki is the equilibrium dissociation constant of an inhibitor or competing ligand from its target.

Like-named read-outs stand apart in the source and are kept apart here.

Take `O=C(CCCCCCc1ccccc1)c1ncco1` [Compound 4a]: the values for the IC50 in series [1], in series [2] and in series [3] were 20000 nM, 20 nM and 2500 nM, respectively.
For `O=C(CCCCCCc1ccccc1)c1nc(Br)co1` [Compound 4b, 1-(4-Bromooxazol-2-yl)-7-phenylheptan-1-one], the results for the inhibitory constant (Ki) in series [4] (setting [8]) and in series [4] (setting [9]) were 3 nM and 3 ± 0.02 nM, respectively.
As for `O=C(CCCCCCc1ccccc1)c1nc(Cl)co1` [Compound 4c, 1-(4-Chlorooxazol-2-yl)-7-phenylheptan-1-one], the Ki was 4 nM in series [4] (setting [8]) and 4 ± 0.05 nM in series [4] (setting [9]).
The corresponding values for `O=C(CCCCCCc1ccccc1)c1nc(I)co1` [Compound 4d, 1-(4-Iodooxazol-2-yl)-7-phenylheptan-1-one] are 6.5 nM and 6.5 ± 0.26 nM.
For `Cc1coc(C(=O)CCCCCCc2ccccc2)n1` [Compound 4e, 1-(4-Methyloxazol-2-yl)-7-phenylheptan-1-one], the inhibitory constant (Ki) in series [4] (setting [8]) is 520 nM; in series [4] (setting [9]), 520 ± 1 nM.
On the same counts, the results for `CSc1coc(C(=O)CCCCCCc2ccccc2)n1` [Compound 4f, 1-(4-(Methylthio)oxazol-2-yl)-7-phenylheptan-1-one] are 29 nM and 29 ± 0.2 nM.
Turning to `O=Cc1coc(C(=O)CCCCCCc2ccccc2)n1` [Compound 4g, 2-(7-Phenylheptanoyl)oxazole-4-carbaldehyde], the “% Hydration or Hemiketal Formation” value is on record as above 95% for CHO in series [5] (setting [10]) and 0% in series [5] (CDCl3). Moreover, the “form in protic solution” value in series [5] is “gem diols”. The Ki in series [4] (setting [8]) is 55 nM; in series [4] (setting [9]), 55 ± 5 nM.
In the case of `CC(=O)c1coc(C(=O)CCCCCCc2ccccc2)n1` [Compound 4h, 1-(4-Acetyloxazol-2-yl)-7-phenylheptan-1-one], the Ki in series [4] (setting [8]) was 2 nM; in series [4] (setting [9]), 2 ± 0.07 nM.
Consider `O=C(CCCCCCc1ccccc1)c1nc(C(=O)C(F)(F)F)co1` [Compound 4i, 7-Phenyl-1-(4-(2,2,2-trifluoroacetyl)oxazol-2-yl)heptan-1-one], for which the “form in protic solution” value in series [5] is on record as “gem diols”. Besides, the inhibition constant Ki is 470 nM in series [4] (setting [8]) and 470 ± 2 nM in series [4] (setting [9]).
`COC(=O)c1coc(C(=O)CCCCCCc2ccccc2)n1` [Compound 4j, Methyl 2-(7-Phenylheptanoyl)oxazole-4-carboxylate]: the Ki was 3.4 nM in series [4] (setting [8]) and 3.4 ± 0.05 nM in series [4] (setting [9]).
Consider `O=C(CCCCCCc1ccccc1)c1nc(-c2ccccn2)co1` [Compound 4k, 7-Phenyl-1-(4-(pyridin-2-yl)oxazol-2-yl)heptan-1-one], for which the IC50 in series [1] is above 100000 nM; in series [2], 10000 nM; in series [3], 30 nM. For the same compound, the “KIAA1363 (selectivity)” value in series [6] was “(>3000)”. In series [7] (relative to 4a, text b175), the “enhancement in FAAH selectivity” value was > 40,000 fold. Further, the “TGH (selectivity)” value in series [7] is “(330)”. Further, the Ki in series [4] (setting [8]) was 1.9 nM; in series [4] (Table 2, read-out: FAAH Ki) it was 1.9 nM; in series [4] (setting [9]), 1.9 ± 0.02 nM.
On to `O=C(CCCCCCc1ccccc1)c1nc(-c2cccnc2)co1` [Compound 4l, 7-Phenyl-1-(4-(pyridin-3-yl)oxazol-2-yl)heptan-1-one], for which the “% Hydration or Hemiketal Formation” value in series [5] (setting [10]) is above 95% for COCF3; in series [5] (CDCl3), 33%. For the same compound, the values for the inhibitory constant (Ki) in series [4] (setting [8]) and in series [4] (setting [9]) were 18 nM and 18 ± 0.1 nM, respectively.
With `O=C(CCCCCCc1ccccc1)c1nc(-c2ccncc2)co1` [Compound 4m, 7-phenyl-1-(4-(pyridin-4-yl)oxazol-2-yl)heptan-1-one], the results for the IC50 in series [1], in series [2] and in series [3] were above 100000 nM, 700 nM and 140 nM, respectively. For the same compound, in series [6], the “KIAA1363 (selectivity)” value is “(>700)”. For the same compound, the “TGH (selectivity)” value in series [7] is given as “(5)”. Besides, the Ki in series [4] (setting [8]) was 1.6 nM; in series [4] (Table 2, read-out: FAAH Ki), 1.7 nM; in series [4] (setting [9]) it was 1.6 ± 0.01 nM.
For the compound `O=C(CCCCCCc1ccccc1)c1nc(-c2ccccc2)co1` [Compound 4n, 7-Phenyl-1-(4-phenyloxazol-2-yl)heptan-1-one], the figures for the Ki in series [4] (setting [8]) and in series [4] (setting [9]) were 65 nM and 65 ± 4.4 nM, respectively.
In the case of `O=C(O)c1coc(C(=O)CCCCCCc2ccccc2)n1` [Compound 4o, 2-(7-Phenylheptanoyl)oxazole-4-carboxylic Acid], the half-maximal inhibitory concentration (IC50) was above 100000 nM in series [1], 2500 nM in series [2] and 500 nM in series [3]. Besides, the “KIAA1363 (selectivity)” value in series [6] is “(>200)”. Further, the “TGH (selectivity)” value in series [7] was “(5)”. The inhibitory constant (Ki) in series [4] (setting [8]) was 53 nM; in series [4] (Table 2, read-out: FAAH Ki) it was 53 nM; in series [4] (setting [9]) it was 53 ± 1 nM.
Turning to `NC(=O)c1coc(C(=O)CCCCCCc2ccccc2)n1` [Compound 4p, 2-(7-Phenylheptanoyl)oxazole-4-carboxamide], the values for the inhibitory constant (Ki) in series [4] (setting [8]) and in series [4] (setting [9]) were 1.6 nM and 1.6 ± 0.001 nM, respectively.
In the case of `CNC(=O)c1coc(C(=O)CCCCCCc2ccccc2)n1` [Compound 4q, N-Methyl-2-(7-phenylheptanoyl)oxazole-4-carboxamide], the Ki in series [4] (setting [8]) is 1.8 nM; in series [4] (setting [9]), 1.8 ± 0.005 nM.
The corresponding values for `CN(C)C(=O)c1coc(C(=O)CCCCCCc2ccccc2)n1` [Compound 4r, N,N-Dimethyl-2-(7-phenylheptanoyl)oxazole-4-carboxamide] are 35 nM and 35 ± 0.1 nM.
On to `COc1coc(C(=O)CCCCCCc2ccccc2)n1` [Compound 4u, 1-(4-Methoxyoxazol-2-yl)-7-phenylheptan-1-one], for which the inhibition constant (Ki) was 740 nM in series [4] (setting [8]) and 740 ± 0.07 nM in series [4] (setting [9]).
Take `N#Cc1cnc(C(=O)CCCCCCc2ccccc2)o1` [Compound 5b, reference compound]: the IC50 in series [1] is above 100000 nM; in series [2] it was 20 nM.
On to `O=C(CCCCCCc1ccccc1)c1ncc(-c2ccccn2)o1` [Compound 5c, reference compound], for which, in series [1], the concentration for half-maximal inhibition (IC50) is above 100000 nM.
Regarding `O=C(O)c1cnc(C(=O)CCCCCCc2ccccc2)o1` [Compound 5d, reference compound], the IC50 was above 100000 nM in series [1], above 100000 nM in series [2] and 900 nM in series [3].
